Data set [1] in a line: Pharmacokinetic studies in rats. The following applies: for oral bioavailability / oral pharmacokinetics in rats (in words): oral dosing. It counts as in vivo, rat. As for the experimental part: Pharmacokinetic studies on MDM2 inhibitors were carried out in rat. For comparison, the MDM2 inhibitor, AT-219, was also studied.
Data set [2] can be described thus: In vitro microsomal stability, rat. The data set is classed as in vitro ADME. The following applies: for microsomal stability (in words) / % of compound remaining when incubated in rat liver microsomes with NADPH: rat liver microsomes; for Microsomal stability, % remaining: Rat Microsome, same batch; for half-life: rat, liver microsomes, rat liver microsomes with NADPH. On the technique in general: Liver microsomes are vesicles of endoplasmic reticulum, rich in cytochrome P450 enzymes.

Data set [3] has as its target recombinant human His-tagged MDM2 protein (residues 1-118) (Homo sapiens (Human), UniProt Q00987). The data set is described as follows: Fluorescence-polarization MDM2 binding assay.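 Also: fluorescence polarization read after three hours of incubation in potassium phosphate buffer containing bovine gamma globulin and Triton X-100.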 The following applies: Table 19A; FP binding assay; read-out: MDM2 IC50.
Description: The assay was performed in the buffer: 100 mM potassium phosphate, pH 7.5; 100 μg/mL bovine gamma globulin; 0.02% sodium azide, 0.01% Triton X-100) and the polarization values were measured after 3 h of incubation using an ULTRA READER (Tecan U.S. Inc., Research Triangle Park, N.C.). […] The Kd value was calculated using the equation: Kd value=IC50−L0/2.
The polarization values were measured after 3 h of incubation. […] Curve fitting was performed using [sequence] PRISM software (GraphPad Software, Inc., San Diego, Calif.). […] Compounds shown in Tables 19A-D as the free base were tested either as the free base or as the CF3CO2H (TFA) or HCl salt.
Data set [4] has as its system Isogenic HCT-116 colon cancer cell lines. Nature of the data set: cells. It counts as cell-based. Conditions: Homo sapiens, cell growth.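 Also: cells grown in 96-well plates in McCoy's 5A medium with 10% FBS, exposed to compound for 4 days.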
Description: Cells were seeded in 96-well flat bottom cell culture plates at a density of 2−3×10^3 cells/well with compounds and incubated for 4 days.
Data set [5] can be described thus: In vitro microsomal stability, human. It counts as in vitro ADME. The following applies: for Microsomal stability, % remaining: Human Microsome, same batch; for half-life: human, liver microsomes, human liver microsomes with NADPH.
For data set [6], the system named is cancer cell lines with wild-type p53 / mutated or deleted p53 (ATCC). The data set is described as follows: Cell growth assay (WST-8), other cancer cell lines. The following applies: Homo sapiens. The data set is classed as cell-based.
[7] abbreviates: rat, plasma, male rats, oral dose 15 mg/kg.
[8] abbreviates: HCT-116, read-out: HCT-116 (p53-/-) IC50, Table 19A, HCT-116 p53-/-.
Setting [9] is: HCT-116, read-out: HCT-116 (p53 wild-type) IC50, Table 19A, HCT-116 p53 wild-type.
Where [10] appears, read: LNCaP, Table 19A, LNCAP cells, p53 wild-type, cell growth, read-out: LNCAP (p53 wild-type) IC50.
Setting [11] is: PC-3, Table 19A, PC-3 cells, deleted p53, cell growth, read-out: PC-3 (deleted p53) IC50.

Where two headings read alike, the source gives them in different places. Some results are limits rather than exact numbers.

In general, Cmax refers to the peak of the concentration-time curve. The bioavailability is dose-corrected exposure relative to a reference, in per cent. Read a low bioavailability as little systemic uptake. What is called half-life is how long it takes for the measured level to halve. A higher half-life goes with slow loss.

Sequence of recombinant human His-tagged MDM2 protein (residues 1-118) (Q00987 1-118): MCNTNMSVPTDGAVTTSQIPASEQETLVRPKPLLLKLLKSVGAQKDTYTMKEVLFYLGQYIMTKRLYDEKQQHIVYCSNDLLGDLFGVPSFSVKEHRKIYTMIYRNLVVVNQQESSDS

In the case of `CN1CCC(CCNC(=O)C2NC(CC(C)(C)C)C3(C(=O)Nc4cc(Cl)ccc43)C2c2cccc(Cl)c2F)CC1` (stereo not shown) [MI-122], in data set [1] (male rats, oral dose 25 mg/kg), the “% F” value was 14%. This compound also came in with a Cmax in data set [1] (male rats, oral dose 25 mg/kg) of 120 ± 112 ng/mL. Further, the T1/2 in data set [1] (male rats, oral dose 25 mg/kg) was 426 ± 108 min. Also, the “oral bioavailability / oral pharmacokinetics in rats (in words)” value in data set [1] is “much inferior oral pharmacokinetic parameters”. The “% of compound remaining when incubated in rat liver microsomes” value came to 100% in data set [2] (Table 16, 0 min); 96.3% in data set [2] (Table 16, 4 min); 95.6% in data set [2] (Table 16, 6 min); 87.8% in data set [2] (Table 16, 10 min); 86.5% in data set [2] (Table 16, 15 min); 82.7% in data set [2] (Table 16, 30 min). The “microsomal stability (in words)” value in data set [2] is “improved rat microsomal stability over MI-219”.
Regarding `CN1CCN(CCNC(=O)C2NC(CC(C)(C)C)C3(C(=O)Nc4cc(Cl)ccc43)C2c2cccc(Cl)c2F)CC1` (stereo not shown) [MI-126], the “% F” value in data set [1] (male rats, oral dose 25 mg/kg) came out at 31%. This compound came in with a Cmax in data set [1] (male rats, oral dose 25 mg/kg) of 274 ± 82 ng/mL. The T1/2 in data set [1] (male rats, oral dose 25 mg/kg) was determined as 228 ± 30 min. The “oral bioavailability / oral pharmacokinetics in rats (in words)” value in data set [1] was “much inferior oral pharmacokinetic parameters”. Further, the “% of compound remaining when incubated in rat liver microsomes” value in data set [2] (Table 16, 0 min) amounted to 100%; in data set [2] (Table 16, 4 min) it was 88.4%; in data set [2] (Table 16, 6 min), 77.2%; in data set [2] (Table 16, 10 min), 65.6%; in data set [2] (Table 16, 15 min) it was 62.3%; in data set [2] (Table 16, 30 min), 60.4%. In addition, the “microsomal stability (in words)” value in data set [2] is “improved rat microsomal stability over MI-219”.
Regarding `CC(C)(C)C[C@H]1N[C@@H](C(=O)NCCC2CCC(O)C2)[C@H](c2cccc(Cl)c2)[C@@]12C(=O)Nc1cc(Cl)c(F)cc12` (stereo partly shown) [MI-225], the “% F” value in data set [1] (male rats, oral dose 25 mg/kg) was found to be 44%. Further, the “AUC(0-t)” value in data set [1] (male rats, oral dose 25 mg/kg) was determined as 7207 ± 1492. Also, the Cmax in data set [1] (male rats, oral dose 25 mg/kg) worked out at 1913 ± 312 ng/mL. For the same compound, in data set [1] (male rats, oral dose 25 mg/kg), the T1/2 came to 90.6 ± 7.2 min. In addition, in data set [1], the “oral bioavailability / oral pharmacokinetics in rats (in words)” value was “good oral bioavailability”. The “% of compound remaining when incubated in rat liver microsomes” value in data set [2] (Table 16, 0 min) turned out to be 100%; in data set [2] (Table 16, 4 min), 63.1%; in data set [2] (Table 16, 6 min), 56.6%; in data set [2] (Table 16, 10 min), 44.4%; in data set [2] (Table 16, 15 min), 30.9%; in data set [2] (Table 16, 30 min), 30.2%. Besides, the “microsomal stability (in words)” value in data set [2] was “inferior microsomal stability to MI-219”.
As for `CC(C)(C)C[C@H]1N[C@@H](C(=O)NCC[C@H](O)CNC(C)(C)C)[C@H](c2cccc(Cl)c2)[C@@]12C(=O)Nc1cc(Cl)c(F)cc12` [MI-519-24], the “oral bioavailability / oral pharmacokinetics in rats (in words)” value in data set [1] is reported as “much inferior oral pharmacokinetic parameters”. Further, the bioavailability in data set [1] (setting [7]) was determined as 1.1%. Further, the half-life is 192 ± 84 min in data set [1] (setting [7]), 48.5 min in data set [2] and 11.2 min in data set [5]. For the same compound, the AUC(0-t) in data set [1] (rat, plasma, male rats, oral dose 15 mg/kg, read-out: AUC(0-t)) amounted to 101 ± 62 µg·h/mL. The maximum concentration (Cmax) in data set [1] (rat, plasma, male rats, oral dose 15 mg/kg, read-out: Cmax) amounted to 35 ± 23 ng/mL. For the same compound, the “Microsomal stability, % remaining” value in data set [2] (0 min) worked out at 100.00%; in data set [2] (5 min), 102.16%; in data set [2] (10 min), 86.33%; in data set [2] (15 min), 75.72%; in data set [2] (30 min) it was 68.24%; in data set [2] (45 min), 66.08%. The “Microsomal stability, % remaining” value in data set [2] (60 min) is listed as 61.51%; in data set [5] (0 min) it was 100.00%; in data set [5] (5 min) it was 57.08%; in data set [5] (10 min) it was 53.92%; in data set [5] (15 min) it was 49.62%; in data set [5] (30 min), 47.41%. The results for the “Microsomal stability, % remaining” value in data set [5] (45 min) and in data set [5] (60 min) were 41.18% and 41.42%, respectively. In addition, the “microsomal stability (in words)” value in data set [2] was “improved stability over MI-219”. Also, the “% of compound remaining when incubated in rat liver microsomes with NADPH” value in data set [2] (0 min) was 100.00%; in data set [2] (5 min), 102.16%; in data set [2] (10 min), 86.33%; in data set [2] (15 min), 75.72%; in data set [2] (30 min), 68.24%; in data set [2] (45 min) it was 66.08%. The “% of compound remaining when incubated in rat liver microsomes with NADPH” value in data set [2] (60 min) was 61.51%. The IC50 in data set [3] was under 2000 nM; in data set [4] (setting [8]), 6500 ± 700 nM; in data set [4] (setting [9]), under 2000 nM; in data set [6] (setting [10]), under 3000 nM; in data set [6] (setting [11]) it was 3700 ± 200 nM. Moreover, the “% of compound remaining when incubated in human liver microsomes with NADPH” value in data set [5] (0 min) worked out at 100.00%; in data set [5] (5 min), 57.08%; in data set [5] (10 min), 53.92%; in data set [5] (15 min) it was 49.62%; in data set [5] (30 min) it was 47.41%; in data set [5] (45 min), 41.18%. Moreover, the “% of compound remaining when incubated in human liver microsomes with NADPH” value in data set [5] (60 min) is 41.42%.
In the case of `CC(C)(C)C[C@H]1N[C@@H](C(=O)N[C@H]2CC[C@@H](O)C2)[C@H](c2cccc(Cl)c2)[C@@]12C(=O)Nc1cc(Cl)c(F)cc12` [MI-519-27], the “% of compound remaining when incubated in rat liver microsomes with NADPH” value in data set [2] (0 min) is on record as 100.00%; in data set [2] (5 min), 57.28%; in data set [2] (10 min), 31.78%; in data set [2] (15 min) it was 19.34%; in data set [2] (30 min), 5.81%; in data set [2] (45 min), 2.49%. In addition, the “% of compound remaining when incubated in rat liver microsomes with NADPH” value in data set [2] (60 min) is listed as 2.13%. Further, the half-life in data set [2] is 6.05 min; in data set [5], 5 min. Also, the IC50 in data set [3] was under 1000 nM; in data set [4] (setting [8]) it was over 10000 nM; in data set [4] (setting [9]), under 2000 nM; in data set [6] (setting [10]), under 2000 nM; in data set [6] (setting [11]), over 5000 nM; in data set [6] (SJSA-1, Table 19A, SJSA-1 cells, p53 wild-type, cell growth, read-out: SJSA-1 (p53 wild-type) IC50), under 3000 nM. Moreover, the “% of compound remaining when incubated in human liver microsomes with NADPH” value in data set [5] (0 min) was found to be 100.00%; in data set [5] (5 min), 52.96%; in data set [5] (10 min) it was 25.03%; in data set [5] (15 min), 11.38%; in data set [5] (30 min), 2.30%; in data set [5] (45 min), 1.42%. Moreover, the “% of compound remaining when incubated in human liver microsomes with NADPH” value in data set [5] (60 min) was determined as 0.77%.

The record behind these values is patent US9079913B2, “Spiro-oxindole MDM2 antagonists” (The Regents of the University of Michigan, priority 2009, dated 2015).
